Source: PubChem BioAssay (NCI)
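Step 1: Grow cells in 96-well plates. Step 2: Expose to compound for 48 hours at 5 concentrations. Step 3: Interpolate endpoints linearly; if unreached, use highest concentration. TGI: concentration producing complete growth inhibition.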

Legend:
Experiment in all cases: NCI anticancer screen, dose series, 48 h
786-0 renal = system: 786-0 renal
A498 renal = system: A498 renal
A549 NSCLC = system: A549 NSCLC
ACHN renal = system: ACHN renal
BT-549 breast = system: BT-549 breast
CAKI-1 renal = system: CAKI-1 renal
CCRF-CEM leukemia = system: CCRF-CEM leukemia
COLO 205 colon = system: COLO 205 colon
DLD-1 colon = system: DLD-1 colon
DMS 114 small cell lung = system: DMS 114 small cell lung
DMS 273 small cell lung = system: DMS 273 small cell lung
DU-145 prostate = system: DU-145 prostate
EKVX NSCLC = system: EKVX NSCLC
HCC-2998 colon = system: HCC-2998 colon
HCT-116 colon = system: HCT-116 colon
HCT-15 colon = system: HCT-15 colon
HL-60(TB) leukemia = system: HL-60(TB) leukemia
HOP-18 NSCLC = system: HOP-18 NSCLC
HOP-62 NSCLC = system: HOP-62 NSCLC
HOP-92 NSCLC = system: HOP-92 NSCLC
HS 578T breast = system: HS 578T breast
HT29 colon = system: HT29 colon
IGROV1 ovarian = system: IGROV1 ovarian
K-562 leukemia = system: K-562 leukemia
KM12 colon = system: KM12 colon
KM20L2 colon = system: KM20L2 colon
LOX IMVI melanoma = system: LOX IMVI melanoma
M14 melanoma = system: M14 melanoma
M19-MEL melanoma = system: M19-MEL melanoma
MALME-3M melanoma = system: MALME-3M melanoma
MCF7 breast = system: MCF7 breast
MDA-MB-231 breast = system: MDA-MB-231 breast
MDA-MB-435 = system: MDA-MB-435
MDA-N = system: MDA-N
MOLT-4 leukemia = system: MOLT-4 leukemia
NCI-H226 lung = system: NCI-H226 lung
NCI-H23 lung = system: NCI-H23 lung
NCI-H460 lung = system: NCI-H460 lung
NCI-H522 lung = system: NCI-H522 lung
NCI/ADR-RES ovarian = system: NCI/ADR-RES ovarian
OVCAR-3 ovarian = system: OVCAR-3 ovarian
OVCAR-4 ovarian = system: OVCAR-4 ovarian
OVCAR-5 ovarian = system: OVCAR-5 ovarian
OVCAR-8 ovarian = system: OVCAR-8 ovarian
PC-3 prostate = system: PC-3 prostate
RPMI-8226 leukemia = system: RPMI-8226 leukemia
RXF 393 renal = system: RXF 393 renal
SF-268 CNS = system: SF-268 CNS
SF-295 CNS = system: SF-295 CNS
SF-539 CNS = system: SF-539 CNS
SK-MEL-2 melanoma = system: SK-MEL-2 melanoma
SK-MEL-28 melanoma = system: SK-MEL-28 melanoma
SK-MEL-5 melanoma = system: SK-MEL-5 melanoma
SK-OV-3 ovarian = system: SK-OV-3 ovarian
SN12C renal = system: SN12C renal
SNB-19 CNS = system: SNB-19 CNS
SNB-75 CNS = system: SNB-75 CNS
SNB-78 CNS = system: SNB-78 CNS
SR leukemia = system: SR leukemia
SW-620 colon = system: SW-620 colon
T-47D breast = system: T-47D breast
TK-10 renal = system: TK-10 renal
U251 CNS = system: U251 CNS
UACC-257 melanoma = system: UACC-257 melanoma
UACC-62 melanoma = system: UACC-62 melanoma
UO-31 renal = system: UO-31 renal
XF 498 CNS = system: XF 498 CNS

Which TGI (786-0 renal) does the source give for COc1ccc(/C=C2\C(=O)NC(=O)c3ccccc32)cc1OC here?
Its TGI is 44.5 µM.

What about the TGI (A498 renal) of the same compound?
The TGI was greater than 100 µM.

And the TGI (A549 NSCLC)?
Its TGI is greater than 100 µM.

What about the TGI (ACHN renal) of the same compound?
The TGI was greater than 74.7 µM.

And the TGI (BT-549 breast)?
Its TGI is greater than 100 µM.

And the TGI (CAKI-1 renal)?
Its TGI is greater than 100 µM.

And the TGI (CCRF-CEM leukemia)?
The TGI was 21.9 µM.

What about the TGI (COLO 205 colon) of the same compound?
Its TGI is greater than 100 µM.

And the TGI (DLD-1 colon)?
Its TGI is 19.2 µM.

And the TGI (DMS 114 small cell lung)?
Its TGI is 18.4 µM.

And the TGI (DMS 273 small cell lung)?
The TGI was greater than 100 µM.

And the TGI (DU-145 prostate)?
Its TGI is greater than 100 µM.

And the TGI (EKVX NSCLC)?
The TGI was greater than 100 µM.

And the TGI (HCC-2998 colon)?
Its TGI is greater than 100 µM.

And the TGI (HCT-116 colon)?
Its TGI is 43.1 µM.

What about the TGI (HCT-15 colon) of the same compound?
The TGI was greater than 100 µM.

What about the TGI (HL-60(TB) leukemia) of the same compound?
The TGI was 16.2 µM.

What about the TGI (HOP-18 NSCLC) of the same compound?
Its TGI is greater than 100 µM.

And the TGI (HOP-62 NSCLC)?
The TGI was 58.3 µM.

And the TGI (HOP-92 NSCLC)?
Its TGI is 39.8 µM.

And the TGI (HS 578T breast)?
The TGI was greater than 100 µM.

And the TGI (HT29 colon)?
The TGI was greater than 100 µM.

What about the TGI (IGROV1 ovarian) of the same compound?
The TGI was greater than 83.2 µM.

And the TGI (K-562 leukemia)?
The TGI was greater than 70.9 µM.

And the TGI (KM12 colon)?
The TGI was greater than 100 µM.

And the TGI (KM20L2 colon)?
The TGI was greater than 100 µM.

What about the TGI (LOX IMVI melanoma) of the same compound?
The TGI was 55.8 µM.

What about the TGI (M14 melanoma) of the same compound?
The TGI was greater than 100 µM.

What about the TGI (M19-MEL melanoma) of the same compound?
Its TGI is greater than 100 µM.

What about the TGI (MALME-3M melanoma) of the same compound?
The TGI was greater than 100 µM.

What about the TGI (MCF7 breast) of the same compound?
Its TGI is greater than 100 µM.

And the TGI (MDA-MB-231 breast)?
The TGI was greater than 100 µM.

And the TGI (MDA-MB-435)?
The TGI was 99.1 µM.

What about the TGI (MDA-N) of the same compound?
The TGI was greater than 66.8 µM.

And the TGI (MOLT-4 leukemia)?
Its TGI is 76.6 µM.

What about the TGI (NCI-H226 lung) of the same compound?
Its TGI is 99 µM.

And the TGI (NCI-H23 lung)?
Its TGI is greater than 90.5 µM.

And the TGI (NCI-H460 lung)?
Its TGI is 67.4 µM.

And the TGI (NCI-H522 lung)?
Its TGI is 49.6 µM.

What about the TGI (NCI/ADR-RES ovarian) of the same compound?
Its TGI is greater than 100 µM.

What about the TGI (OVCAR-3 ovarian) of the same compound?
The TGI was greater than 26.4 µM.

And the TGI (OVCAR-4 ovarian)?
Its TGI is 62.1 µM.

And the TGI (OVCAR-5 ovarian)?
Its TGI is greater than 100 µM.

And the TGI (OVCAR-8 ovarian)?
The TGI was 42.2 µM.

And the TGI (PC-3 prostate)?
The TGI was greater than 100 µM.

What about the TGI (RPMI-8226 leukemia) of the same compound?
Its TGI is 47.9 µM.

And the TGI (RXF 393 renal)?
The TGI was 33.9 µM.

And the TGI (SF-268 CNS)?
The TGI was greater than 69.9 µM.

What about the TGI (SF-295 CNS) of the same compound?
The TGI was greater than 100 µM.

What about the TGI (SF-539 CNS) of the same compound?
Its TGI is 22.9 µM.

And the TGI (SK-MEL-2 melanoma)?
Its TGI is greater than 94.5 µM.

What about the TGI (SK-MEL-28 melanoma) of the same compound?
Its TGI is greater than 100 µM.

What about the TGI (SK-MEL-5 melanoma) of the same compound?
The TGI was greater than 94.4 µM.

What about the TGI (SK-OV-3 ovarian) of the same compound?
The TGI was 81 µM.

What about the TGI (SN12C renal) of the same compound?
The TGI was greater than 100 µM.

And the TGI (SNB-19 CNS)?
The TGI was greater than 93.6 µM.

What about the TGI (SNB-75 CNS) of the same compound?
Its TGI is greater than 87.5 µM.

What about the TGI (SNB-78 CNS) of the same compound?
The TGI was greater than 66.2 µM.

And the TGI (SR leukemia)?
Its TGI is 18.9 µM.

What about the TGI (SW-620 colon) of the same compound?
Its TGI is 46.3 µM.

What about the TGI (T-47D breast) of the same compound?
Its TGI is greater than 100 µM.

What about the TGI (TK-10 renal) of the same compound?
Its TGI is greater than 100 µM.

What about the TGI (U251 CNS) of the same compound?
Its TGI is greater than 63.5 µM.

And the TGI (UACC-257 melanoma)?
Its TGI is greater than 100 µM.

And the TGI (UACC-62 melanoma)?
Its TGI is 78.2 µM.

What about the TGI (UO-31 renal) of the same compound?
Its TGI is 80 µM.

What about the TGI (XF 498 CNS) of the same compound?
Its TGI is 42.5 µM.
